Paper PMC11206922, “Novel Histone Deacetylase (HDAC) Inhibitor Induces Apoptosis and Suppresses Invasion via E-Cadherin Upregulation in Pancreatic Ductal Adenocarcinoma (PDAC)” (Pharmaceuticals, 2024)

Molecular target: T1, HDAC 2 (Homo sapiens, UniProt Q92769)
T1 construct: gene HDAC2
Test: HDAC enzyme inhibition assay (details not shown)
Assay type: biochemical

T1 sequence (Q92769 whole entry): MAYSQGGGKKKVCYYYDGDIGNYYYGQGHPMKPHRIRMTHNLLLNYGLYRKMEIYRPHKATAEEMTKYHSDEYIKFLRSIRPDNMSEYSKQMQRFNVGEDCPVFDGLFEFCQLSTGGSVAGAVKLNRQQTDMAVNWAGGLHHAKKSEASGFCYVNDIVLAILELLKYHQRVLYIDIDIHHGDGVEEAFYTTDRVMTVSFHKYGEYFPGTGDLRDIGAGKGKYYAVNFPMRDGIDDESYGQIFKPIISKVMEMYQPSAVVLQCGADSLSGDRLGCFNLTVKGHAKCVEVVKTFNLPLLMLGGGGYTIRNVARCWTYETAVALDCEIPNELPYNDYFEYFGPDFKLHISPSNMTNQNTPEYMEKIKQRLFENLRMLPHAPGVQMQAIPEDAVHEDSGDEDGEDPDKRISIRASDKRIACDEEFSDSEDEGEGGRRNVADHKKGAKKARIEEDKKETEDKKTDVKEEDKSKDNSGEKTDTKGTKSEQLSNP

IC50: 58 ± 20 nM
SMILES: COc1cc(NC(=O)NCCCCCCC(=O)NO)c2nc(OC)cc(C)c2c1 [compound 8, MPK544]
